This is an account of results in article PMC5429603, “Discovery and characterization of verinurad, a potent and specific inhibitor of URAT1 for the treatment of hyperuricemia and gout” (Scientific Reports, 2017).

The structures appear in SMILES notation. pIC50: −log10 of the molar value.

This assay deals with T1, human URAT1 h-F449Y (Homo sapiens, UniProt Q96S37, F449Y).
T1 construct: expressed in transfected cells; host or cells: HEK-293T
T1 sequence (Q96S37 1-553 F449Y): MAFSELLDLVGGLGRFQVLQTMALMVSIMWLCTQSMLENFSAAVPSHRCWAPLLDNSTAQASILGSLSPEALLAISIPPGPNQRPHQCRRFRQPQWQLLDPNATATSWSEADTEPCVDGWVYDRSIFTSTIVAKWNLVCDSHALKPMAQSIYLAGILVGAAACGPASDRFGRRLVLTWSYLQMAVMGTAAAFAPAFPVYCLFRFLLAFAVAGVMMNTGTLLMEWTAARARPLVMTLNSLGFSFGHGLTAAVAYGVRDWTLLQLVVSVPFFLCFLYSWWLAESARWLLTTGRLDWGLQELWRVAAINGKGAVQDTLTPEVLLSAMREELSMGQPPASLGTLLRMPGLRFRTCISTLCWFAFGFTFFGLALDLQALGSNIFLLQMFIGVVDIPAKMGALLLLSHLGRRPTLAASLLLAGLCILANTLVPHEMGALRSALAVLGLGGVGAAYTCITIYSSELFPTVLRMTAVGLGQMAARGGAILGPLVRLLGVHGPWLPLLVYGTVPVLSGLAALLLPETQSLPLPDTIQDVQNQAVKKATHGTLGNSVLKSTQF
Briefly: URAT1 activity assay, h-F449Y. In kind it is cell-based. From the text:
Human URAT1 (GenBank BC053348.1, Homo sapiens SLC22A12), rat URAT1 (NCBI NM_001034943.1, Rattus norvegicus Slc22a12) and human OAT4 (NCBI NM_018484.2, Homo sapiens SLC22A11) genes were purchased from Origene Technologies, Inc. and subcloned into pCMV6/neo using NotI. Where indicated, controls transfections used pCMV6/neo. Mutants were produced by site-directed mutagenesis using the QuikChange Lightning Multi Site-Directed Mutagenesis Kit (Agilent Technologies). […] Mutagenic primer sequences are provided in ref. [15] and mutagenic primer sequences for previously unreported mutants shown in Supplementary Table 1. All constructs used in this study were untagged. Human OAT1 was purchased from Fisher Scientific (catalog # MHS1010–7508183 in pSPORT6, NCBI NM_153276.2, Homo sapiens SLC22A6).
HEK-293T cells were maintained in DMEM/high glucose/L-glutamine/HEPES supplemented with 1 mM sodium pyruvate (Life Technologies) and 10% FBS (PAA Laboratories) at 37 °C in 5% CO2. To express URAT1, OAT4 or OAT1, plasmids were reverse transfected into HEK-293T cells. DNA (10 µg) was mixed with 30 µl of DreamFect Gold (Boca Scientific) in 2 ml OptiMem (Life Technologies). After 20 minutes, 18 ml of media containing 2 × 10^7 cells in suspension was added and mixed, and 200 µl per well were plated onto white clear-bottomed poly-D-lysine coated 96-well plates (BD Biosciences). The cells were assayed the following day.
URAT1 and OAT4 activity assays were performed in assay buffer consisting of 25 mM MES pH 5.5 (from a 1 M MES solution [Sigma] adjusted to pH 5.5 with sodium hydroxide), 125 mM sodium gluconate, 4.8 mM potassium gluconate, 1.2 mM monobasic potassium phosphate, 1.2 mM magnesium sulfate, 1.3 mM calcium gluconate and 5.6 mM glucose. URAT1 inhibitors were serially diluted into assay buffer and added to the cells for 5 minutes prior to addition of substrate. URAT1-expressing cells were incubated with 100 µM ^14C-uric acid for 10 minutes and OAT4-expressing cells were incubated with 20 µM carboxyfluorescein (Life Technologies, Inc.) for 5 minutes. Cells were then washed three times in 25 mM MES pH 5.5/125 mM sodium gluconate, and solubilized in Ultima Gold (Perkin Elmer) prior to liquid scintillation counting. Each treatment was measured in triplicate.

Consider `CC(C)(Sc1ccncc1-c1ccc(C#N)c2ccccc12)C(=O)O` [Verinurad, 2-((3-(4-cyanonaphthalen-1-yl)pyrindin-4-yl)thio)-2-methylpropanoic acid], for which the “fold reduced affinity compared to human URAT1” value (h-F449Y) is given as “the same affinity”. Also, the pIC50 (h-F449Y binding site point mutant) is 7.60.

For orientation: pIC50 means the IC50 on a negative log10 scale, so that one unit is a factor of ten. The low end stands for a large IC50, the high end for a small IC50.
